Test results published in patent US20230219995A1, “FLUORESCENT CYTOSINE ANALOGUES AND THEIR APPLICATION IN TRANSCRIPTION AND TRANSLATION” (STEALTH LABELS BIOTECH AB, priority 2020, published 2023).

Key:
[1] = target: T1, T7 RNA polymerase (Escherichia phage T7, UniProt P00573); experiment: Cell-free in vitro transcription with T7 RNA polymerase (tC^O TP/CTP ratios 0-100%); assay type: biochemical, bacteriophage
T1 construct: purchased Thermo Scientific

[2] = target: T2, SP6 RNA polymerase (Enterobacteria phage SP6, UniProt P06221); experiment: Cell-free in vitro transcription with SP6 RNA polymerase (tC^O TP/CTP ratios 0-100%); assay type: biochemical, bacteriophage; conditions: tC^O TP/canonical CTP ratios 0 to 100%, agarose bleach gel
T2 construct: purchased Thermo Scientific
T2 sequence (P06221 1-874): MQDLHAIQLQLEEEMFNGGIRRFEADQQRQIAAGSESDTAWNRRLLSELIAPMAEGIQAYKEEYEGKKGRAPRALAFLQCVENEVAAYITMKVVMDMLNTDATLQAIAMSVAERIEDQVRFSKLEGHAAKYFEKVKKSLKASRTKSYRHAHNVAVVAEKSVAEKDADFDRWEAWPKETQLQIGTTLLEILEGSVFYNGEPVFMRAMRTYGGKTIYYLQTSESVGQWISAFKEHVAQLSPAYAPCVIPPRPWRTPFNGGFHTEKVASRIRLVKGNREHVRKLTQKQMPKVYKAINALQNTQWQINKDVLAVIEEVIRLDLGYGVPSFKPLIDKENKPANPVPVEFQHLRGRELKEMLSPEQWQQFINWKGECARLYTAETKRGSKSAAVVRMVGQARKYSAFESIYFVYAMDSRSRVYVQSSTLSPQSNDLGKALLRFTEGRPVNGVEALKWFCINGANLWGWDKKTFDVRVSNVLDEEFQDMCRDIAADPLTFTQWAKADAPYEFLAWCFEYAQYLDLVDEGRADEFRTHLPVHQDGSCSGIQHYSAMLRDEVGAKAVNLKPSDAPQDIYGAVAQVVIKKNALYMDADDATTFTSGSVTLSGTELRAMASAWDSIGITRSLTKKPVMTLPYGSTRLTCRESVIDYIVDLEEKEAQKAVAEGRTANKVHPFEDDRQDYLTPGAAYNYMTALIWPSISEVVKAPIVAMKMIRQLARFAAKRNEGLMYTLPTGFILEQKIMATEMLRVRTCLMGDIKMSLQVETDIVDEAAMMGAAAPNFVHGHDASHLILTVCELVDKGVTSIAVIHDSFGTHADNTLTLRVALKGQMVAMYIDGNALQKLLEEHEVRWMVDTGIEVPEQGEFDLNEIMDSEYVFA

[3] = Steady state absorption, emission and fluorescence quantum yield of tC^O-modified RNA transcripts; assay type: physicochemical; conditions: free triphosphate
Method: A spectroscopic approach was used to quantify the incorporation efficiency of tC^O TP, compared to the canonical CTP. To enable this, all RNA transcripts were purified using a Monarch RNA Cleanup kit, ensuring complete removal of unreacted tC^O TP.
The tC^O-RNA products from the cell-free transcription reactions (prior to polyadenylation and capping, see Methods: Bio for details) were measured as received, i.e. in RNAse free Milli Q water. All measurements were carried out at room temperature (ca. 22° C.) in a 3.0 mm path length quartz cuvette, with a sample volume of ca. 60 μL.
Absorption spectra were recorded on a Cary 5000 (Varian Technologies) spectrophotometer with a wavelength interval of 1.0 nm, integration time of 0.1 s, and a spectral band width (SBW) of 1 nm. All spectra were baseline corrected by subtracting the corresponding absorption from the solvent only. A second-order polynomial Savitzky-Golay (five points) smoothing filter was applied to all spectra. […]
Emission spectra were recorded on a SPEX Fluorolog (Jobin Yvon Horiba) fluorimeter with excitation at 356 nm. […]
Sample fluorescence quantum yields (ΦF) were determined relative to a solution of quinine sulphate (Sigma) in 0.5 M H2SO4 (ΦF,REF=0.546) and calculated according to equation S2. […]

T1 sequence (P00573 whole entry): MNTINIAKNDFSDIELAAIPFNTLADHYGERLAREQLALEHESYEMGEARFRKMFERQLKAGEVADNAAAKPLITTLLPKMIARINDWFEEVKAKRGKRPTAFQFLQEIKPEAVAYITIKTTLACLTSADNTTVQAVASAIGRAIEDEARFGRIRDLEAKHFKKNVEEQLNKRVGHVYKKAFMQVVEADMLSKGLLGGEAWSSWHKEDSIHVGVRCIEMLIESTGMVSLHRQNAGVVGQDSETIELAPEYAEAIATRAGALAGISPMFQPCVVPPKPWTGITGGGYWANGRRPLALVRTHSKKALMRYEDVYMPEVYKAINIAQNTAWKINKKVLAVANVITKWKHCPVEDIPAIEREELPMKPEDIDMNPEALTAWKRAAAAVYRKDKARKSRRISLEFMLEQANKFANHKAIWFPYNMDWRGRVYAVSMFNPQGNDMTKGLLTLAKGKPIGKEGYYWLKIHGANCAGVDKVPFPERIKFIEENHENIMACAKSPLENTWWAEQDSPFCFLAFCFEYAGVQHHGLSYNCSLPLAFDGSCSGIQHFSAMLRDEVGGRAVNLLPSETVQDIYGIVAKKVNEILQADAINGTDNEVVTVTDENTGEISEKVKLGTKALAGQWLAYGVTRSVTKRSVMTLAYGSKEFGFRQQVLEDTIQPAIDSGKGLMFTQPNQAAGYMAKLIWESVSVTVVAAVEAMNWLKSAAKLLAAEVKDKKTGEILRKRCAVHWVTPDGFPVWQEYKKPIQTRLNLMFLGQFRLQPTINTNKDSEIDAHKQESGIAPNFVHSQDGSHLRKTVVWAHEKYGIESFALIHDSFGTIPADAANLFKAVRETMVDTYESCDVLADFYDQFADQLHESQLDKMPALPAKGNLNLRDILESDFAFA

((2R,3S,4R,5R)-3,4-dihydroxy-5-(2-oxo-2,10-dihydro-3H-benzo[b]pyrimido[4,5-e][1,4]oxazin-3-yl)tetrahydrofuran-2-yl)methyl triphosphate [tC^O TP]
kC/ktC^O, ratio of first-order rate constants for incorporation of CTP vs. tC^O TP ([1]; calculated from absorption at 260 nm and 370 nm of purified transcripts): 0.96-1.4 | transcription and tC^O incorporation into full-length H2B:GFP mRNA ([1]; tC^O TP/canonical CTP ratios 0 to 100%, agarose bleach gel): Efficient transcription and tC^O incorporation | transcription and tC^O incorporation into full-length H2B:GFP mRNA [2]: Efficient transcription and tC^O incorporation | tC^O-band absorption λmax [3]: 360 nm
